Laboratory results from patent US12109184B2, “Personalized methods of treating cancer” (CANCER RESEARCH TECHNOLOGY LIMITED, priority 2020, dated 2024).
Entries after “also recorded” stand apart in the source; their conditions may differ.

Columns and labels:
Type in all cases: cell-based
[1] = system: MTAP-expressing HCT116 cells; assay: Cell counting during cysteine starvation, MTAP-expressing HCT116; conditions: −Cys with or without methionine
Source text: [NT] Successfully transfected cells were selected with puromycin and grown as clonal colonies. Clones were selected based initially on MTA efflux measured by liquid chromatography mass spectrometry (LC-MS). Clones with greatest MTA efflux were selected, and methylthioadenosine phosphorylase knockout (MTAP-KO) was then confirmed by western blot. MTAP-KO HCT116 cells were transfected with pCMV-Hygro-MTAP and pCMV-Hygro-negative control vector, selected using hygromycin B, and grown as clonal colonies. Clones were selected based initially on MTA efflux measured by LC-MS. Clones with low MTA efflux were selected, then MTAP re-expression was confirmed by western blot. […] DAPI-stained cell nuclei were detected via microscopy. For experiments using spermine oxidase (SMOX) and polyamine oxidase (PAOX) inhibitors or MTOB, cells were pre-treated with stated concentrations for 16 hours in complete medium. After pre-treatment, cells were washed in PBS, and treatment was continued in complete or cysteine-free medium for stated times. After treatment was finished, cells were fixed and stained as described above. For experiments using MTA, polyamines, GPX4 and CSE inhibitors, treatment started at the same time as cysteine starvation. For experiments involving hypoxic conditions, cells were seeded in normoxic conditions and allowed to adhere for 24 hours before control and cysteine starvation medium was added and cells were immediately transferred either to a humidified cell culture incubator set to 37° C. in 20% O2 (normoxia), or a hypoxia chamber set to 37° C. in 1% O2 (hypoxia) for the stated times. Cells were fixed immediately and stained as described above.

[2] = system: MDA-MB-231, MIAPaCa-2 and PANC-1 cells; assay: Cell counting during cysteine starvation, starvation-sensitive cell lines; conditions: medium without cysteine
[3] = system: breast, colorectal and pancreatic cancer cell lines; assay: Cell counting in complete or cysteine-free medium, cell lines not given; conditions: supplementation during cysteine starvation
[4] = system: MDA-MB-231, PANC-1, and MIAPaCa-2 cells; assay: CellROX assay on live cells, starvation-sensitive cell lines; conditions: cysteine starved, MTAP deleted cells, 18 h
Description: Cells were seeded as described above. Live cells were stained with Hoechst 33342 nuclear stain for 20 min. The medium was removed, and cells were stained in 100 μl medium containing CellTracker™ Green CMFDA Dye and Hoechst stain for 40 min. The cells were then washed with PBS, and 300 μl of the relevant experimental medium was added for 1 hour. Then, CellROX® Deep Red was spiked into the medium, and the cells were incubated for 40 min. The medium was removed, the cells were washed with PBS, and new relevant experimental medium including CellROX was added. The cells were imaged using an Operetta automated microscope platform set to 37° C. in 5% CO2 every hour for 16-24 hours. I

CSCC[C@H](N)C(=O)O [methionine]
effect of presence of methionine during cysteine starvation [1]: advantageous | sensitivity to cysteine starvation versus methionine concentration ([2]; methionine 0 to 10 μM, 17 h and 41 h): remained sensitive to cysteine starvation down to 5 μM methionine | sensitivity to cysteine starvation versus methionine concentration ([2]; methionine 10 μM-1000 μM, 20 h): remained highly sensitive | rescue from cysteine starvation-induced cell death (summary in discussion) [3]: unable to provide rescue; also recorded: did not | ROS levels (CellROX) in response to methionine concentration [4]: increased in a dose-dependent manner
